Measurements taken from ChEMBL document CHEMBL4364283 (J Med Chem, 2019).
Activity calls are given as the source filed them. The calls are words filed in the database; no cut-off is given here.

Key:
MV4-11 [1] = test: cells; conditions: Homo sapiens, MV4-11, 96 h
Menin [2] = biological target: T1, Menin (Homo sapiens, UniProt O00255); test: Inhibition of FAM-probe binding to Menin (unknown origin) after 60 mins by fluorescence polarization competitive binding assay
T1 sequence (O00255 whole entry): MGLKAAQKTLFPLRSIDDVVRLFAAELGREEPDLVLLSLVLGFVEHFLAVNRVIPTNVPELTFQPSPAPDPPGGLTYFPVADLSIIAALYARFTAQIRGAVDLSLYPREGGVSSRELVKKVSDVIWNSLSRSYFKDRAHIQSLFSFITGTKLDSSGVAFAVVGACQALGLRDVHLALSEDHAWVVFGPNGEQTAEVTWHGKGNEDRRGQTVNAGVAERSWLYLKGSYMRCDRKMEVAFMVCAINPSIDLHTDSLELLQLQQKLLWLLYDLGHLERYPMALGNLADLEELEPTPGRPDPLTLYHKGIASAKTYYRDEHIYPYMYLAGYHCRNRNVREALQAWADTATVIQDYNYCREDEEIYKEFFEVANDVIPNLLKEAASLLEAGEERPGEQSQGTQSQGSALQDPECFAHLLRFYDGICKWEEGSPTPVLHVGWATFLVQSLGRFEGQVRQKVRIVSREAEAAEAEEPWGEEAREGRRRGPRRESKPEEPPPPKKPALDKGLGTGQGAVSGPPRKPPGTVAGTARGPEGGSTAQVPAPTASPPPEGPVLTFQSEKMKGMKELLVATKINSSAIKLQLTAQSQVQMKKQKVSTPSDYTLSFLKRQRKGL

Menin [3] = biological target: T1, Menin; test: Binding affinity to human Menin expressed in Escherichia coli Rosetta2 (DE3) cells by isothermal titration calorimetry
Menin [4] = biological target: Menin (Homo sapiens, UniProt O00255); test: Inhibition of fluorescent probe binding to Menin (2 to 610 residues containing deletion from 460-519) (unknown origin) after 60 mins by fluorescence polarization competitive binding assay
[5] = Solubility of the compound; assay type: physicochemical
HL-60 = test: Growth inhibition of human HL60 cells after 4 days by WST-8 assay; assay type: functional, cell-based; conditions: HL-60, 96 h
MOLM-13 = test: Growth inhibition of human MOLM13 cells after 4 days by WST-8 assay; assay type: functional, cell-based; conditions: MOLM-13, 96 h
Mus musculus [6] = test: Downregulation of MEIS1 expression in tumors of mouse xenografted with human MV411 cells at 50 mg/kg , ip administered daily for 3 days and measured after 6 to 48 hrs by RT-qPCR analysis; assay type: functional, organism-based
[7] = biological target: T2, Menin/Histone-lysine N-methyltransferase MLL (Homo sapiens) (UniProt O00255+Q03164); conditions: 100 nM
T2 sequence (Q03164 1-2718 partner limits assumed, one chain of several): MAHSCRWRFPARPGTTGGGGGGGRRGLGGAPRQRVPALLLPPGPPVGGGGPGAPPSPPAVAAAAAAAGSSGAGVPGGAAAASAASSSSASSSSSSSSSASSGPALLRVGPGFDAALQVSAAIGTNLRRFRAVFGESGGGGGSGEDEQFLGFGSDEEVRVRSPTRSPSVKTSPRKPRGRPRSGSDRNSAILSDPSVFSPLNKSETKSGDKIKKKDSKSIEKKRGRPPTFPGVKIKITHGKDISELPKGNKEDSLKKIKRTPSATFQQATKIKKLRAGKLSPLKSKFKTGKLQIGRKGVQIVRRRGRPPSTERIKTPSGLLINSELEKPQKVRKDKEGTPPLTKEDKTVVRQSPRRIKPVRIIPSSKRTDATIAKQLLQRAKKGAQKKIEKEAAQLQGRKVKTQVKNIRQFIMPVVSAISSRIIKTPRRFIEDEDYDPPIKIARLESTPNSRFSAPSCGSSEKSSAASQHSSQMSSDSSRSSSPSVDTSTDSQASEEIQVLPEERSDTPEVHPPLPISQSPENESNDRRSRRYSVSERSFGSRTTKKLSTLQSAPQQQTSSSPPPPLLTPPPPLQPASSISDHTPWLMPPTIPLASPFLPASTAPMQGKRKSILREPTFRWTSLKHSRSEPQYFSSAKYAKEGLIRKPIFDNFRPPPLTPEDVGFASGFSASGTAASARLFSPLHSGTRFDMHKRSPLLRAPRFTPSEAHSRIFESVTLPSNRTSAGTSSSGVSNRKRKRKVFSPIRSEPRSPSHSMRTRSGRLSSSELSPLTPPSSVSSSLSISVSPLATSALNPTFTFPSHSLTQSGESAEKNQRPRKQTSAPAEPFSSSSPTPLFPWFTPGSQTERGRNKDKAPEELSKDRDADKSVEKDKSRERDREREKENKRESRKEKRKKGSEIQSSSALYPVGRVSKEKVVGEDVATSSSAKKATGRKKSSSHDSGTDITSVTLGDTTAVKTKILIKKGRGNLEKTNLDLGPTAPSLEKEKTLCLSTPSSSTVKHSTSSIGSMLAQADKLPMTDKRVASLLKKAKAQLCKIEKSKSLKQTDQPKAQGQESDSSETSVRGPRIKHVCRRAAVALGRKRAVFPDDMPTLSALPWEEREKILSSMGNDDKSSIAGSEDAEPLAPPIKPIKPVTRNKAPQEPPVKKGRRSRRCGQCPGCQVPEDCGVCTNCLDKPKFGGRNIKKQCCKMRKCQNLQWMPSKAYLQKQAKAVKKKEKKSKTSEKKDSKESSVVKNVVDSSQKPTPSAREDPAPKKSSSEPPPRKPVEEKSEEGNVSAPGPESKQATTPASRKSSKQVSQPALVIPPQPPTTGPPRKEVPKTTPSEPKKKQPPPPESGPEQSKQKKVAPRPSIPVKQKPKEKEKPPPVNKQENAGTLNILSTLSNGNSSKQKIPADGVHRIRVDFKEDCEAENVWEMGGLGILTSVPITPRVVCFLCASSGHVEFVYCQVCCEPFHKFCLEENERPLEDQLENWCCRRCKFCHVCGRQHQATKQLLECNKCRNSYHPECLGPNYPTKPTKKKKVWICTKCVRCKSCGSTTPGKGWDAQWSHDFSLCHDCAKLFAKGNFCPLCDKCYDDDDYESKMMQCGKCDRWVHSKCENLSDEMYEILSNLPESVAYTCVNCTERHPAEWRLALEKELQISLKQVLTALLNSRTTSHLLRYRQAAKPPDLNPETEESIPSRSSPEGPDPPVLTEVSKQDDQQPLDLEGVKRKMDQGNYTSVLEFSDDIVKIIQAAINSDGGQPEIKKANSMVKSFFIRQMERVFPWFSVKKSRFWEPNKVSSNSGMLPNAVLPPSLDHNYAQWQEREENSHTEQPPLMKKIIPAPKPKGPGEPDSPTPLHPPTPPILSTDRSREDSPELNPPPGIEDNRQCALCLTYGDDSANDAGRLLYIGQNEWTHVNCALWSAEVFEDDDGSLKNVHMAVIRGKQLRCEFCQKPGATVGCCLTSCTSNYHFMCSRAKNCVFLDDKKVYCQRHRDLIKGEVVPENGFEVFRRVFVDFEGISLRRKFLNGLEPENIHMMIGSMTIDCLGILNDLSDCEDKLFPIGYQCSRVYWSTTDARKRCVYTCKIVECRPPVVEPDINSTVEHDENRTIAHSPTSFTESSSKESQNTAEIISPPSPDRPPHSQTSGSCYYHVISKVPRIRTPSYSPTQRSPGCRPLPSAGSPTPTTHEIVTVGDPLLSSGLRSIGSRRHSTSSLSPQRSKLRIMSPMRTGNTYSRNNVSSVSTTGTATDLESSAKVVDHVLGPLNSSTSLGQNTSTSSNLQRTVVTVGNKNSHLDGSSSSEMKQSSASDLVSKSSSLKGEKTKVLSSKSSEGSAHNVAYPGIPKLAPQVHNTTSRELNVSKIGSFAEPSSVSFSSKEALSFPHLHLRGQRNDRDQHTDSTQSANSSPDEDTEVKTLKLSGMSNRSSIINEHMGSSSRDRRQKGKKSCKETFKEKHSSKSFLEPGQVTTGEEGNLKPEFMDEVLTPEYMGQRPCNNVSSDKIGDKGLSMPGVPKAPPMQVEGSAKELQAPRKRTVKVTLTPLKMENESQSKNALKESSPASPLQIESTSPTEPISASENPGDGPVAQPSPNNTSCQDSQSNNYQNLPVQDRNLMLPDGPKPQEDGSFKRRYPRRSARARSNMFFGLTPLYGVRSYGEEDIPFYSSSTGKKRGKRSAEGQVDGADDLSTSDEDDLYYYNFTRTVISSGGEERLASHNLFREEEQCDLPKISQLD
T2 sequence (Q03164 2719-3969 partner limits assumed, one chain of several): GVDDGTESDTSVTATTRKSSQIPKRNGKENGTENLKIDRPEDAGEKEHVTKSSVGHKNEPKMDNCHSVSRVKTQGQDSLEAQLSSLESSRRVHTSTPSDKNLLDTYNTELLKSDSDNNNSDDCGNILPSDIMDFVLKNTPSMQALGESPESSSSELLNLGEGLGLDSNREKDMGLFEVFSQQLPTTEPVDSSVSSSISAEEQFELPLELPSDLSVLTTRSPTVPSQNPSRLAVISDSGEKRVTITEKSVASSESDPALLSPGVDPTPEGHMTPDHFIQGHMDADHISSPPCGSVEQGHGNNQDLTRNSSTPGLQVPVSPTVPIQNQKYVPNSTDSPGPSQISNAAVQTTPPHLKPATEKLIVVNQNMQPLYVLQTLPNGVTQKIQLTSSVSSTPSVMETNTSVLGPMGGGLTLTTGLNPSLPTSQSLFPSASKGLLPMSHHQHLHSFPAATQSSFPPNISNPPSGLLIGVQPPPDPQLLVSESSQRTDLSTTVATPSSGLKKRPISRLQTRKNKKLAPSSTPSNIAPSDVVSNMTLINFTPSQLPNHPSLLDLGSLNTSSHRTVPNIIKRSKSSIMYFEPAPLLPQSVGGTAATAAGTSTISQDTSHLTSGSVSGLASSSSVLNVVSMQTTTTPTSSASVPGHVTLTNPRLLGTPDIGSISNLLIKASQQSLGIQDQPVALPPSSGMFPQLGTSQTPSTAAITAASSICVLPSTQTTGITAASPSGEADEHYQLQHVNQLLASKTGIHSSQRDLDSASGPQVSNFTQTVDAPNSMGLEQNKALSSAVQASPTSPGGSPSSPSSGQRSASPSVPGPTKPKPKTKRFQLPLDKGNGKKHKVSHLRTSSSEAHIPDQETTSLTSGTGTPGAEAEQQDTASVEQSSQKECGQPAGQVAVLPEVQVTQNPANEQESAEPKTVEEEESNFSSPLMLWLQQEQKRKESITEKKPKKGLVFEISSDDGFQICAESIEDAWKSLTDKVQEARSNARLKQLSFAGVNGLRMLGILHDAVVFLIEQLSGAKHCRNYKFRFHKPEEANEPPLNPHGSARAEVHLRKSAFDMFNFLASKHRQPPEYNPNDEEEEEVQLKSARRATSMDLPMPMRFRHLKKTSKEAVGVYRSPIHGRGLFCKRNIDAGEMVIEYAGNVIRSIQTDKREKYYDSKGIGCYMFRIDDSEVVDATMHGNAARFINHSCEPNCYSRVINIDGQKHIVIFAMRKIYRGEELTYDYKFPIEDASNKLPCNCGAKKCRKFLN

Menin [8] = biological target: T1, Menin
[9] = biological target: T2, Menin/Histone-lysine N-methyltransferase MLL (Homo sapiens); conditions: 100 nM; remark: listed apart in the source
MV4-11 [10] = test: Induction of differentiation in human MV4-11 cells assessed as increase in CD11b positive cells at 0.03 to 3 uM after 24 hrs by phycoerythrin staining-based flow cytometric analysis; assay type: functional, cell-based
Mus musculus [11] = test: Downregulation of Hoxa9 expression in tumors of mouse xenografted with human MV411 cells at 50 mg/kg , ip administered daily for 3 days and measured after 6 to 48 hrs by RT-qPCR analysis; assay type: functional, organism-based
[12] = biological target: T2, Menin/Histone-lysine N-methyltransferase MLL (Homo sapiens); conditions: 30 to 300 nM
[13] = biological target: T2, Menin/Histone-lysine N-methyltransferase MLL (Homo sapiens); conditions: 30 to 300 nM; remark: listed apart in the source
MV4-11 [14] = test: Induction of differentiation in human MV4-11 cells assessed as increase in CD11b positive cells after 48 hrs by phycoerythrin staining-based flow cytometric analysis; assay type: functional, cell-based

SMILES	IC50 (MV4-11 [1])	IC50 (Menin [2])	Ki (Menin [2])	also measured
N#Cc1ccc(N2CCC(CN3CCC(C4(C5CCCC5)NCCc5ccccc54)CC3)C2)cc1 (configuration not stated)	2400 nM	88 nM	27 nM	–
CCCC(=O)O[C@H]1CCC[C@@H]1[C@](C#N)(c1ccccc1)C1CCN(CC2CN(c3ccc(C#N)cc3)C2)CC1 (mixture of isomers)	10700 nM	1100 nM	350 nM	–
N#Cc1ccc(N2CCC(N3CCC(C4(C5CCCC5)NCCc5ccccc54)CC3)CC2)cc1 (configuration not stated)	6330 nM	650 nM	207 nM	–
N#Cc1ccc(N2CCCC(CN3CCC(C4(C5CCCC5)NCCc5ccccc54)CC3)C2)cc1 (configuration not stated)	–	6600 nM	2130 nM	–
N#Cc1cc2cc(CN3CCC(Nc4ncnc5sc(CC(F)(F)F)cc45)CC3)c(O)cc2n1Cc1cn[nH]c1	–	–	–	Kd (Menin [3]): 10 nM
O=S(=O)(c1ccc(N2CC(CN3CCC(C4(C5CCCC5)NCCc5ccccc54)CC3)C2)cc1)C1CCCC1 (configuration not stated)	900 nM	17 nM	4.6 nM	–
CC(=O)N[C@H]1CCC[C@@H]1[C@](C#N)(c1ccccc1)C1CCN(CC2CN(c3ccc(C#N)cc3)C2)CC1 (racemic)	3900 nM	102 nM	32 nM	–
N#Cc1ccc(N2CC(CN3CCC(C4(C5CCCC5)NCCc5ccccc54)CC3)C2)cc1 (configuration not stated)	1300 nM	–	11 nM	–
CNC(=O)O[C@H]1CCC[C@@H]1[C@](C#N)(c1ccccc1)C1CCN(CC2CN(c3ccc(C#N)cc3)C2)CC1 (mixture of isomers)	300 nM	11 nM	2.7 nM	–
CC(=O)O[C@H]1CCC[C@@H]1[C@](C#N)(c1ccccc1)C1CCN(CC2CN(c3ccc(C#N)cc3)C2)CC1 (mixture of isomers)	1700 nM	40 nM	12 nM	–
O=S(=O)(c1ccncc1)c1ccc(N2CC(CN3CCC(C4(C5CCCC5)CN(Cc5ccncc5)Cc5ccccc54)CC3)C2)cc1 (configuration not stated)	1330 nM	–	361 nM	–
O=S(=O)(c1ccncc1)c1ccc(N2CC(CN3CCC(C4(C5CCCC5)CNCc5ccccc54)CC3)C2)cc1 (configuration not stated)	980 nM	–	1.7 nM	–
CC(C)N1Cc2ccccc2C(C2CCCC2)(C2CCN(CC3CN(c4ccc(S(=O)(=O)c5ccncc5)cc4)C3)CC2)C1 (configuration not stated)	910 nM	–	1.4 nM	–
COC(=O)N[C@H]1CCC[C@@H]1[C@](C#N)(c1cccc(F)c1)C1CCN(CC2CN(c3ccc(S(=O)(=O)C4CN(C(=O)/C=C/CN(C)C)C4)cc3)C2)CC1	–	–	–	IC50 (Menin [4]): 3 nM
O=S(=O)(c1ccncc1)c1ccc(N2CC(CN3CCC(C4(C5CCCC5)NCCc5ccccc54)CC3)C2)cc1 (configuration not stated)	1300 nM	17 nM	4.6 nM	solubility [5]: Soluble
N#Cc1ccc(N2CC(CN3CCC(C(C#N)(c4ccccc4)C4CCCC4)CC3)C2)cc1 (racemic)	16900 nM	3000 nM	960 nM	–
CCS(=O)(=O)c1ccc(N2CC(CN3CCC(C4(C5CCCC5)NCCc5ccccc54)CC3)C2)cc1 (configuration not stated)	2100 nM	34 nM	10 nM	–
CCO[C@H]1CCC[C@@H]1[C@](C#N)(c1ccccc1)C1CCN(CC2CN(c3ccc(C#N)cc3)C2)CC1 (racemic)	4300 nM	5400 nM	1700 nM	–
N#Cc1ccc(OCCCCN2CCC(C3(C4CCCC4)NCCc4ccccc43)CC2)cc1 (configuration not stated)	500 nM	5000 nM	1300 nM	–

SMILES	IC50 (MV4-11 [1])	IC50 (Menin [2])	Ki (Menin [2])	also measured
O=S(=O)(c1ccccc1)c1ccc(N2CC(CN3CCC(C4(C5CCCC5)NCCc5ccccc54)CC3)C2)cc1 (configuration not stated)	500 nM	20 nM	5.6 nM	–
O=S(=O)(c1ccc(N2CC(CN3CCC(C4(C5CCCC5)NCCc5ccccc54)CC3)C2)cc1)C1CCCCC1 (configuration not stated)	1100 nM	10 nM	2.4 nM	–
O=S(=O)(c1ccncc1)c1ccc(N2CC(CN3CCC(C4(C5CCCC5)CN(CC5CC5)Cc5ccccc54)CC3)C2)cc1 (configuration not stated)	1370 nM	–	1.4 nM	–
CN1Cc2ccccc2C(C2CCCC2)(C2CCN(CC3CN(c4ccc(S(=O)(=O)c5ccncc5)cc4)C3)CC2)C1 (configuration not stated)	–	11 nM	–	IC50 (HL-60): 2500 nM; IC50 (MOLM-13): 4300 nM
CCC(=O)O[C@H]1CCC[C@@H]1[C@](C#N)(c1ccccc1)C1CCN(CC2CN(c3ccc(C#N)cc3)C2)CC1 (mixture of isomers)	2200 nM	33 nM	9.7 nM	–
O=S(=O)(c1ccncc1)c1ccc(N2CC(CN3CCC(C4(C5CCCC5)CN(C5CCC5)Cc5ccccc54)CC3)C2)cc1 (configuration not stated)	900 nM	–	2 nM	–
CC(=O)O[C@@H]1CCC[C@H]1[C@](C#N)(c1ccccc1)C1CCN(CC2CN(c3ccc(C#N)cc3)C2)CC1 (relative stereo)	14300 nM	–	–	–
CCN1Cc2ccccc2C(C2CCCC2)(C2CCN(CC3CN(c4ccc(S(=O)(=O)c5ccncc5)cc4)C3)CC2)C1 (configuration not stated)	840 nM	–	1 nM	–
N#Cc1ccc(OCCN2CCC(C3(C4CCCC4)NCCc4ccccc43)CC2)cc1 (configuration not stated)	1800 nM	21200 nM	5500 nM	–
CS(=O)(=O)c1ccc(N2CC(CN3CCC(C4(C5CCCC5)NCCc5ccccc54)CC3)C2)cc1 (configuration not stated)	4430 nM	143 nM	45 nM	–
O=S(=O)(c1ccncc1)c1ccc(N2CC(CN3CCC(C4(C5CCCC5)CN(CC5COC5)Cc5ccccc54)CC3)C2)cc1 (configuration not stated)	1570 nM	–	7 nM	–
CNC(=O)O[C@H]1CCC[C@@H]1[C@]1(C2CCN(CC3CN(c4ccc(S(=O)(=O)c5ccncc5)cc4)C3)CC2)CN(C)Cc2ccccc21 (mixture of isomers)	–	5 nM	< 1 nM	Activity (Mus musculus [6]): Active; inhibition [7]: Active; Kd (Menin [8]): 1.4 nM; inhibition [9]: Active; Activity (MV4-11 [10]): Active; Activity (Mus musculus [11]): Active; inhibition [12]: Active; inhibition [13]: Active; Activity (MV4-11 [14]): Dose-dependent effect
Cc1c(CN2CCC(Nc3ncnc4sc(CC(F)(F)F)cc34)CC2)ccc2c1cc(C#N)n2Cc1cn[nH]c1	–	–	–	Kd (Menin [3]): 10 nM
CC(C)S(=O)(=O)c1ccc(N2CC(CN3CCC(C4(C5CCCC5)NCCc5ccccc54)CC3)C2)cc1 (configuration not stated)	1100 nM	–	21 nM	–
N#Cc1ccc(OCCCN2CCC(C3(C4CCCC4)NCCc4ccccc43)CC2)cc1 (configuration not stated)	1400 nM	–	–	–
O=S(=O)(c1ccc(N2CC(CN3CCC(C4(C5CCCC5)NCCc5ccccc54)CC3)C2)cc1)C1CC1 (configuration not stated)	1200 nM	–	7 nM	–
O=S(=O)(c1ccc(N2CC(CN3CCC(C4(C5CCCC5)NCCc5ccccc54)CC3)C2)cc1)C1CCC1 (configuration not stated)	1700 nM	–	11 nM	–
O=S(=O)(c1ccncc1)c1ccc(N2CC(CN3CCC(C4(C5CCCC5)CN(CCN5CCOCC5)Cc5ccccc54)CC3)C2)cc1 (configuration not stated)	1550 nM	–	2.7 nM	–
